This experiment deals with T1, human FXR (Homo sapiens, UniProt Q96RI1).
T1 construct: expressed in transfected cells
T1 sequence (Q96RI1 1-486): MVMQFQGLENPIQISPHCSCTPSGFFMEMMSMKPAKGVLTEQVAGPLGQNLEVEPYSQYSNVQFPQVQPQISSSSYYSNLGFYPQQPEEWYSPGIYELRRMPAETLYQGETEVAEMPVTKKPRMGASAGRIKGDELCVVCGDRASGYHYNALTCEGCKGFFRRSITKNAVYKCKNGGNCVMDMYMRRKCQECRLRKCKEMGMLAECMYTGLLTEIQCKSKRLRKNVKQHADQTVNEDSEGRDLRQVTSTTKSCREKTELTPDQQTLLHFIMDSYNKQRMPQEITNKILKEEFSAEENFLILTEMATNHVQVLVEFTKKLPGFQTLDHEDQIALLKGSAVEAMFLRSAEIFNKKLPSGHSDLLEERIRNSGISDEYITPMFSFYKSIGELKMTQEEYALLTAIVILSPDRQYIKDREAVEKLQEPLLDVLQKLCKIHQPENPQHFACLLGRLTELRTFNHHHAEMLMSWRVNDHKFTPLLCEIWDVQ
As to the kind of experiment: FXR reporter assay (cellular FXR activities). The class given is cell-based. The settings on record: for pEC50: FXR reporter cells, 24 hours incubation, luciferase, read-out: Reporter Cell EC50; for Emax: read-out: Emax (%) (GW4064 Emax = 100%). Summed up:
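EC50 derived from luciferase read-out after 24 h (37 °C, 5% CO2) treatment of human-FXR-expressing reporter cells with serially diluted compound.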
In general terms: In a reporter assay the amount or activity of a reporter protein is the signal.

The structures appear in SMILES notation. pEC50: −log10 of the molar value.

Broadly, the pEC50 is the negative decadic logarithm of the EC50, by convention in mol/L. Broadly, the Emax is the maximal effect, on the per cent scale that the assay sets. On to `CN(C)Cc1cc(C#Cc2ccc(OCc3c(-c4c(Cl)cccc4Cl)noc3C3CC3)cc2Cl)cc(C(=O)O)c1` [Compound I-49, 3-((2-chloro-4-((5-cyclopropyl-3-(2,6-dichlorophenyl)isoxazol-4-yl)methoxy)phenyl)ethynyl)-5-((dimethylamino)methyl)benzoic acid], for which the pEC50 is 7.22 to 7.70 and the Emax is above 100%.
The like results for `CC(C)c1nc2c(C(=O)O)cc(C#Cc3ccc(OCc4c(-c5c(Cl)cccc5Cl)noc4C4CC4)cc3Cl)cc2o1` [Compound I-115, 6-((2-chloro-4-((5-cyclopropyl-3-(2,6-dichlorophenyl)isoxazol-4-yl)methoxy)phenyl)ethynyl)-2-isopropylbenzo[d]oxazole-4-carboxylic acid] were, in that order, 7.22 to 7.70 and 97%.
The like results for `O=C(O)c1cccc(C#Cc2c(Cl)cc(OCc3c(-c4c(Cl)cccc4Cl)noc3C3CC3)cc2Cl)c1` [Compound I-34, 3-((2,6-dichloro-4-((5-cyclopropyl-3-(2,6-dichlorophenyl)isoxazol-4-yl)methoxy)phenyl)ethynyl)benzoic acid] were, in that order, 6.70 to 7.22 and 100%.
`COc1c(N)cc(C(=O)O)cc1C#Cc1ccc(OCc2c(-c3c(Cl)cccc3Cl)noc2C2CC2)cc1Cl` [Compound I-61, 3-amino-5-((2-chloro-4-((5-cyclopropyl-3-(2,6-dichlorophenyl)isoxazol-4-yl)methoxy)phenyl)ethynyl)-4-methoxybenzoic acid]: the pEC50 was 6.70 to 7.22 and the Emax turned out to be 95%.
Regarding `O=Cc1cc(C#Cc2ccc(OCc3c(-c4c(Cl)cccc4Cl)noc3C3CC3)cc2Cl)cc(C(=O)O)c1` [Compound I-41, 3-((2-chloro-4-((5-cyclopropyl-3-(2,6-dichlorophenyl)isoxazol-4-yl)methoxy)phenyl)ethynyl)-5-formylbenzoic acid], the pEC50 is 7.22 to 7.70 and the Emax is above 100%.
The like results for `COc1c(N)cc(C#Cc2ccc(OCc3c(-c4c(Cl)cccc4Cl)noc3C3CC3)cc2Cl)cc1C(=O)O` [Compound I-62, 3-amino-5-((2-chloro-4-((5-cyclopropyl-3-(2,6-dichlorophenyl)isoxazol-4-yl)methoxy)phenyl)ethynyl)-2-methoxybenzoic acid] were, in that order, 6.70 to 7.22 and above 100%.
The corresponding values for `Cc1c(N)cc(C#Cc2ccc(OCc3c(-c4c(Cl)cccc4Cl)noc3C3CC3)cc2Cl)cc1C(=O)O` [Compound I-71, 3-amino-5-((2-chloro-4-((5-cyclopropyl-3-(2,6-dichlorophenyl)isoxazol-4-yl)methoxy)phenyl)ethynyl)-2-methylbenzoic acid] are 6.00 to 6.70 and above 100%.
The like results for `CC(C)(O)Cn1ccc2c(C#Cc3ccc(OCc4c(-c5c(Cl)cccc5Cl)noc4C4CC4)cc3Cl)cc(C(=O)O)cc21` [Compound I-98, 4-((2-chloro-4-((5-cyclopropyl-3-(2,6-dichlorophenyl)isoxazol-4-yl)methoxy)phenyl)ethynyl)-1-(2-hydroxy-2-methylpropyl)-1H-indole-6-carboxylic acid] were, in that order, 7.22 to 7.70 and above 100%.
In the case of `O=C(O)c1cc(C#Cc2ccc(OCc3c(-c4c(Cl)cccc4Cl)noc3C3CC3)cc2Cl)cc2[nH]ccc12` [Compound I-101, 6-((2-chloro-4-((5-cyclopropyl-3-(2,6-dichlorophenyl)isoxazol-4-yl)methoxy)phenyl)ethynyl)-1H-indole-4-carboxylic acid], the pEC50 was at least 7.70 and the Emax came out at 97%.
The corresponding values for `O=C(O)c1cc(I)cc(C#Cc2ccc(OCc3c(-c4c(Cl)cccc4Cl)noc3C3CC3)cc2Cl)c1` [Compound I-67, 3-((2-chloro-4-((5-cyclopropyl-3-(2,6-dichlorophenyl)isoxazol-4-yl)methoxy)phenyl)ethynyl)-5-iodobenzoic acid] are 7.22 to 7.70 and above 100%.
With `CCNCc1cc(C#Cc2ccc(OCc3c(-c4c(Cl)cccc4Cl)noc3C3CC3)cc2Cl)cc(C(=O)O)c1` [Compound I-45, 3-((2-chloro-4-((5-cyclopropyl-3-(2,6-dichlorophenyl)isoxazol-4-yl)methoxy)phenyl)ethynyl)-5-((ethylamino)methyl)benzoic acid], the pEC50 is 6.00 to 6.70 and the Emax was 88%.
The like results for `O=C(O)c1cc(C#Cc2ccc(OCc3c(-c4c(Cl)cccc4Cl)noc3C3CC3)cc2Cl)cc2nc(CO)oc12` [Compound I-107, 5-((2-chloro-4-((5-cyclopropyl-3-(2,6-dichlorophenyl)isoxazol-4-yl)methoxy)phenyl)ethynyl)-2-(hydroxymethyl)benzo[d]oxazole-7-carboxylic acid] were, in that order, below 6.00 and above 100%.
The corresponding values for `CCOC(=O)Nc1cccc(C#Cc2ccc(OCc3c(-c4c(Cl)cccc4Cl)noc3C3CC3)cc2Cl)c1` [Compound I-11, ethyl (3-((2-chloro-4-((5-cyclopropyl-3-(2,6-dichlorophenyl)isoxazol-4-yl)methoxy)phenyl)ethynyl)phenyl)carbamate] are below 6.00 and 90%.
The corresponding values for `C#Cc1cc(C#Cc2ccc(OCc3c(-c4c(Cl)cccc4Cl)noc3C3CC3)cc2Cl)cc(C(=O)O)c1` [Compound I-32, 3-((2-chloro-4-((5-cyclopropyl-3-(2,6-dichlorophenyl)isoxazol-4-yl)methoxy)phenyl)ethynyl)-5-ethynylbenzoic acid] are 6.70 to 7.22 and 94%.
`CCCc1nc2cc(C#Cc3ccc(OCc4c(-c5c(Cl)cccc5Cl)noc4C4CC4)cc3Cl)cc(C(=O)O)c2o1` [Compound I-105, 5-((2-chloro-4-((5-cyclopropyl-3-(2,6-dichlorophenyl)isoxazol-4-yl)methoxy)phenyl)ethynyl)-2-propylbenzo[d]oxazole-7-carboxylic acid]: the pEC50 is at least 7.70 and the Emax was above 100%.
In the case of `CC(C)NCCCn1ccc2c(C#Cc3ccc(OCc4c(-c5c(Cl)cccc5Cl)noc4C4CC4)cc3Cl)cc(C(=O)O)cc21` [Compound I-93, 4-((2-chloro-4-((5-cyclopropyl-3-(2,6-dichlorophenyl)isoxazol-4-yl)methoxy)phenyl)ethynyl)-1-(3-(isopropylamino)propyl)-1H-indole-6-carboxylic acid], the pEC50 was 6.00 to 6.70 and the Emax came to 82%.
On to `O=C(O)c1cc(C#Cc2ccc(OCc3c(-c4c(Cl)cccc4Cl)noc3C3CC3)cc2Cl)cc(CNCC(F)(F)F)c1` [Compound I-46, 3-((2-chloro-4-((5-cyclopropyl-3-(2,6-dichlorophenyl)isoxazol-4-yl)methoxy)phenyl)ethynyl)-5-(((2,2,2-trifluoroethyl)amino)methyl)benzoic acid], for which the pEC50 is 6.70 to 7.22 and the maximal response (Emax) turned out to be 99%.
For the molecule `O=C(O)c1cc(C#Cc2ccc(OCc3c(-c4c(Cl)cccc4Cl)noc3C3CC3)cc2Cl)cc(CN2CCC2)c1` [Compound I-43, 3-(azetidin-1-ylmethyl)-5-((2-chloro-4-((5-cyclopropyl-3-(2,6-dichlorophenyl)isoxazol-4-yl)methoxy)phenyl)ethynyl)benzoic acid], the pEC50 is 6.70 to 7.22 and the Emax was above 100%.
As to `CCCc1nc2c(C(=O)O)cc(C#Cc3ccc(OCc4c(-c5c(Cl)cccc5Cl)noc4C4CC4)cc3Cl)cc2o1` [Compound I-114, 6 ((2-chloro-((5-cyclopropyl-3-(2,6-dichlorophenyl)isoxazol-4-yl)methoxy)phenyl)ethynyl)-2-propylbenzo[d]oxazole-4-carboxylic acid], the pEC50 is 7.22 to 7.70 and the Emax was above 100%.
As to `O=C(O)c1cc(C#Cc2ccc(OCc3c(-c4c(Cl)cccc4Cl)noc3C3CC3)cc2Cl)cc(C2CC2)c1` [Compound I-64, 3-((2-chloro-4-((5-cyclopropyl-3-(2,6-dichlorophenyl)isoxazol-4-yl)methoxy)phenyl)ethynyl)-5-cyclopropylbenzoic acid], the pEC50 is 7.22 to 7.70 and the Emax was above 100%.
The corresponding values for `O=C(O)c1cc(C#Cc2ccc(OCc3c(-c4c(Cl)cccc4Cl)noc3C3CC3)cc2Cl)cc2nccnc12` [Compound I-108, 7-((2-chloro-4-((5-cyclopropyl-3-(2,6-dichlorophenyl)isoxazol-4-yl)methoxy)phenyl)ethynyl)quinoxaline-5-carboxylic acid] are 7.22 to 7.70 and 98%.
`CCc1nc2c(C(=O)O)cc(C#Cc3ccc(OCc4c(-c5c(Cl)cccc5Cl)noc4C4CC4)cc3Cl)cc2o1` [Compound I-113, 6-((2-chloro-4-((5-cyclopropyl-3-(2,6-dichlorophenyl)isoxazol-4-yl)methoxy)phenyl)ethynyl)-2-ethylbenzo[d]oxazole-4-carboxylic acid]: the negative logarithm of the EC50 (pEC50) was 7.22 to 7.70 and the Emax is 96%.
